Patent US5200409A, “Composition and use of substituted 1,3-dithiolo-and 1,4-dithiinoquinoxalines as an antimicrobial” (The Dow Chemical Company, priority 1992, dated 1993)
Converted amounts (≈) assume the structure as drawn. Where two headings read alike, the source gives them in different places.

Assays:
[1] = tested on: Klebsiella pneumoniae (Kp); assay: Minimum inhibitory concentration (MIC) in nutrient agar; format: cell-based, Klebsiella pneumoniae ATCC 8308
Experimental: (§1) The minimum inhibitory concentration (MIC) for the compounds listed in Table I is determined for 9 bacteria, using nutrient agar: and 7 yeast and fungi, using malt yeast agar. A one percent solution of the test compound is prepared in a mixture of acetone and water. Nutrient agar is prepared at pH 6.8, representing a neutral medium, and at pH 8.2, representing an alkaline medium. The nutrient agars are prepared by adding 23 g of nutrient agar to one-liter of deionized water. In addition, the alkaline medium is prepared by adjusting a 0.04M solution of N-[tris-(hydroxymethyl)methyl]-glycine buffered deionized water with concentrated sodium hydroxide to a pH of […]. Malt yeast agar is prepared by adding 3 g yeast extract and 45 g malt agar per liter of deionized water. The specific agar is dispensed in 30 ml aliquots into 25×200 mm test tubes, capped and autoclaved for 15 minutes at 115° C. The test tubes containing the agar are cooled in a water bath until the temperature of the agar is 48° C. Then, an appropriate amount of the one percent solution of the test compound is added (except in the controls where no compound is added) to the respective test tubes so that the final concentrations are 500, 250, 100, 50, 25, 10, 5, 2.5, 1.0 and zero parts per million of the test compound in the agar, thus having a known concentration of test compound dispersed therein. The contents of the test tubes are then transferred to respective petri plates. After drying for 24 hours, the petri plates containing nutrient agar are inoculated with bacteria and those containing malt yeast agar are inoculated with yeast and fungi.
(§2) The inoculation with bacteria is accomplished by using the following procedure. Twenty-four hour-cultures of each of the bacteria are prepared by incubating the respective bacteria in tubes containing nutrient broth for 24 hours at 30° C. in a shaker. Dilutions of each of the 24 hour-cultures are made so that nine separate suspensions (one for each of the nine test bacteria) are made, each containing 10^8 colony forming units (CFU) per ml of suspension of a particular bacteria. Aliquots of 0.3 ml of each of the bacterial suspensions are used to fill the individual wells of Steer's Replicator. For each microbial suspension, 0.3 ml was used to fill three wells (i.e., three wells of 0.3 ml each) so that for the nine different bacteria, 27 wells are filled. The Steer's Replicator is then used to inoculate both the neutral and alkaline pH nutrient agar petri plates.
(§3) The inoculated petri plates are incubated at 30° C. for 48 hours and then read to determine if the test compound which is incorporated into the agar prevented growth of the respective bacteria.
(§4) Table II lists the bacteria, yeast and fungi used in the MIC test described above along with their respective American Type Culture Collection (ATCC) identification numbers.

Bacillus subtilis (Bs) = assay: as above; format: cell-based, Bacillus subtilis ATCC 8473
Experimental: as §1, §2, §3, §4

Fusarium oxysporum (Fo) = assay: Minimum inhibitory concentration (MIC) in malt yeast agar; format: cell-based, Fusarium oxysporum ATCC 48112; conditions: malt yeast agar; 30° C.; 72 hours for fungi; read-out: Minimum Inhibitory Concentration, Fo
Experimental: as §1
(§5) The inoculation with the yeast and fungi is accomplished as follows. Cultures of yeast and fungi are incubated for seven days on malt yeast agar at 30° C. These cultures are used to prepare suspensions by the following procedure. A suspension of each organism is prepared by adding 10 ml of sterile saline and 10 microliters of octylphenoxy polyethoxy ethanol to the agar slant of yeast or fungi. The sterile saline/octylphenoxy polyethoxy ethanol solution is then agitated with a sterile swab to suspend the microorganism grown on the slant. Each resulting suspension is diluted into sterile saline (1 part suspension: 9 parts sterile saline). Aliquots of these dilutions are placed in individual wells of Steer's Replicator and petri plates inoculated as previously described. The petri plates are incubated at 30° C. and read after 48 hours for yeast and 72 hours for fungi.
as §4

[2] = tested on: Staphylococcus aureus (Sa); assay: Minimum inhibitory concentration (MIC) in nutrient agar; format: cell-based, Staphylococcus aureus ATCC 6538
Experimental: as §1, §2, §3, §4

[3] = tested on: Aureobasidium pullulan (Ap); assay: Minimum inhibitory concentration (MIC) in malt yeast agar; format: cell-based, Aureobasidium pullulan ATCC 16622; conditions: read-out: Minimum Inhibitory Concentration, Ap
Experimental: as §1, §5, §4

[4] = tested on: Penicillium chrysogenum (Pc); assay: as above; format: cell-based, Penicillium chrysogenum ATCC 9480; conditions: malt yeast agar; 30° C.; 72 hours for fungi; read-out: Minimum Inhibitory Concentration, Pc
Experimental: as §1, §5, §4

[5] = tested on: Saccharomyces cerevisiae (Sc); assay: as above; format: cell-based, Saccharomyces cerevisiae ATCC 4105; conditions: malt yeast agar, 30° C., 48 hours for yeast, read-out: Minimum Inhibitory Concentration, Sc
Experimental: as §1, §5, §4

[6] = tested on: Salmonella choleraesuis (Sc); assay: Minimum inhibitory concentration (MIC) in nutrient agar; format: cell-based, Salmonella choleraesuis ATCC 10708; conditions: Salmonella enterica, 48 h
Experimental: as §1, §2, §3, §4

[7] = tested on: Pseudomonas aeruginosa (Pa); assay: as above; format: cell-based, Pseudomonas aeruginosa ATCC 10145; conditions: 48 hours
Experimental: as §1, §2, §3, §4

Candida albicans (Ca) = assay: Minimum inhibitory concentration (MIC) in malt yeast agar; format: cell-based, Candida albicans ATCC 10231; conditions: malt yeast agar; 30° C.; 48 hours for yeast; read-out: Minimum Inhibitory Concentration, Ca
Experimental: as §1, §5, §4

Escherichia coli (Ec) = assay: Minimum inhibitory concentration (MIC) in nutrient agar; format: cell-based, Escherichia coli ATCC 11229; conditions: 48 h
Experimental: as §1, §2, §3, §4

Trichoderma viride (Tv) = assay: Minimum inhibitory concentration (MIC) in malt yeast agar; format: cell-based, Trichoderma viride ATCC 8678; conditions: malt yeast agar; 30° C.; 72 hours for fungi; read-out: Minimum Inhibitory Concentration, Tv
Experimental: as §1, §5, §4

[8] = tested on: Pseudomonas aeruginosa (PRD-10); assay: Minimum inhibitory concentration (MIC) in nutrient agar; format: cell-based, Pseudomonas aeruginosa ATCC 15442; conditions: 48 h
Experimental: as §1, §2, §3, §4

Proteus vulgaris (Pv) = assay: as above; format: cell-based, Proteus vulgaris ATCC 881; conditions: 48 h
Experimental: as §1, §2, §3, §4

[9] = tested on: Enterobacter aerogenes (Ea); assay: as above; format: cell-based, Enterobacter aerogenes ATCC 13048; conditions: Klebsiella aerogenes, 48 h
Experimental: as §1, §2, §3, §4

Aspergillus niger (An) = assay: Minimum inhibitory concentration (MIC) in malt yeast agar; format: cell-based, Aspergillus niger ATCC 16404; conditions: malt yeast agar; 30° C.; 72 hours for fungi; read-out: Minimum Inhibitory Concentration, An
Experimental: as §1, §5, §4

[10] = 48 h, pH 8.2, read-out: Minimum Inhibitory Concentration, Kp
[11] = pH 6.8, nutrient agar, 30° C., 48 hours, read-out: Minimum Inhibitory Concentration, Kp
[12] = 48 h, pH 8.2, read-out: Minimum Inhibitory Concentration, Bs
[13] = 48 h, pH 8.2, read-out: Minimum Inhibitory Concentration, Sa
[14] = pH 6.8, read-out: Minimum Inhibitory Concentration, Sc
[15] = pH 8.2, read-out: Minimum Inhibitory Concentration, Sc
[16] = pH 6.8, read-out: Minimum Inhibitory Concentration, Ec
[17] = pH 8.2, read-out: Minimum Inhibitory Concentration, Ec
[18] = pH 6.8, read-out: Minimum Inhibitory Concentration, PRD
[19] = pH 8.2, read-out: Minimum Inhibitory Concentration, PRD
[20] = pH 6.8, read-out: Minimum Inhibitory Concentration, Pv
[21] = pH 8.2, read-out: Minimum Inhibitory Concentration, Pv
[22] = pH 6.8, read-out: Minimum Inhibitory Concentration, Ea
[23] = pH 8.2, read-out: Minimum Inhibitory Concentration, Ea
[24] = 48 h, pH 6.8, read-out: Minimum Inhibitory Concentration, Bs
[25] = pH 6.8, nutrient agar, 30° C., 48 hours, read-out: Minimum Inhibitory Concentration, Sa

SMILES | MIC [1, 10] [µg/mL] | MIC [1, 11] [µg/mL] | MIC (Bacillus subtilis (Bs); [12]) [µg/mL] | MIC (Fusarium oxysporum (Fo)) [µg/mL] | MIC [2, 13] [µg/mL] | MIC [5] [µg/mL] | MIC [6, 14] [µg/mL] | MIC [6, 15] [µg/mL] | MIC ([7]; pH 6.8, 30° C.) [µg/mL] | MIC ([7]; pH 8.2, 30° C.) [µg/mL] | MIC (Candida albicans (Ca)) [µg/mL] | MIC (Escherichia coli (Ec); [16]) [µg/mL] | MIC (Escherichia coli (Ec); [17]) [µg/mL] | MIC (Trichoderma viride (Tv)) [µg/mL] | MIC [8, 18] [µg/mL] | MIC [8, 19] [µg/mL] | MIC (Proteus vulgaris (Pv); [20]) [µg/mL] | MIC (Proteus vulgaris (Pv); [21]) [µg/mL] | MIC [9, 22] [µg/mL] | MIC [9, 23] [µg/mL] | further results
N#CC1=C(C#N)Sc2nc3cc(C(=O)c4ccccc4)ccc3nc2S1 [V, 7-benzoyl-1,4-dithiino-(2,3-b)-quinoxaline-2,3-dicarbonitrile] | > 500 | > 500 | > 500 | 500 (≈ 1340 µM) | > 500 | 500 (≈ 1340 µM) | > 500 | > 500 | > 500 | > 500 | 500 (≈ 1340 µM) | > 500 | > 500 | 500 (≈ 1340 µM) | > 500 | > 500 | > 500 | > 500 | > 500 | > 500 | MIC (Bacillus subtilis (Bs); pH 6.8, nutrient agar, 30° C., 48 hours, read-out: Minimum Inhibitory Concentration, Bs): 50 µg/mL (≈ 134 µM); MIC ([2]; 48 h, pH 6.8, read-out: Minimum Inhibitory Concentration, Sa): 50 µg/mL (≈ 134 µM); MIC [3]: 250 µg/mL (≈ 671 µM); MIC [4]: 250 µg/mL (≈ 671 µM)
N#CC(C#N)=C1Sc2nc3ccc(C#N)cc3nc2S1 [S, 6-cyano-1,3-dithiolo-(4,5-b)-quinoxaline-2-ylidene-propanedinitrile] | > 500 | > 500 | > 500 | 500 (≈ 1700 µM) | > 500 | 500 (≈ 1700 µM) | > 500 | > 500 | > 500 | > 500 | 500 (≈ 1700 µM) | > 500 | > 500 | > 500 | > 500 | > 500 | > 500 | > 500 | > 500 | > 500 | MIC (Bacillus subtilis (Bs); [24]): > 500 µg/mL; MIC [2, 25]: > 500 µg/mL; MIC ([3]; malt yeast agar, 30° C., 48 hours for yeast and 72 hours for fungi): 100 µg/mL (≈ 341 µM); MIC (Aspergillus niger (An)): 100 µg/mL (≈ 341 µM)
COc1ccc2nc3c(nc2c1)SC(=C(C#N)C#N)S3 [U, 6-Methoxy-1,3-dithiolo-(4,5-b)-quinoxaline-2-ylidene-propanedinitrile] | > 500 | > 500 | > 500 | > 500 | > 500 | > 500 | > 500 | > 500 | > 500 | > 500 | > 500 | > 500 | > 500 | > 500 | > 500 | > 500 | > 500 | > 500 | > 500 | > 500 | MIC (Bacillus subtilis (Bs); [24]): > 500 µg/mL; MIC [2, 25]: > 500 µg/mL; MIC [4]: > 500 µg/mL; MIC (Aspergillus niger (An)): > 500 µg/mL
